Data on 36 molecules can be found in ChEMBL document CHEMBL1201862, “PubChem BioAssay data set” (2004).

Assay [1] addresses T1, RNA-binding protein pos-1 (Caenorhabditis elegans, UniProt G5EF15).
T1 sequence (G5EF15 whole entry): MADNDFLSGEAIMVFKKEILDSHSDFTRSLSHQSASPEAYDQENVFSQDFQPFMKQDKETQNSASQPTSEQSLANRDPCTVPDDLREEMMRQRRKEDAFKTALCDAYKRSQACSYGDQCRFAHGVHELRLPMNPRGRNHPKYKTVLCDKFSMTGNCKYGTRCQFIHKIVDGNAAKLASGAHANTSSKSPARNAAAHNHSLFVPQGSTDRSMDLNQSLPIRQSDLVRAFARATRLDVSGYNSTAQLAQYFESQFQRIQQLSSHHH
The assay is described as follows: inhibitors of POS-1/mex-3 RNA binding, dose response, biochemical, fluorescence polarization (AID 1964). (In general: Fluorescence polarisation rises when a labelled molecule tumbles more slowly, as on binding a larger partner.)

The target of assay [2] is T2, Zinc finger protein mex-5 (Caenorhabditis elegans, UniProt Q9XUB2).
T2 sequence (Q9XUB2 whole entry): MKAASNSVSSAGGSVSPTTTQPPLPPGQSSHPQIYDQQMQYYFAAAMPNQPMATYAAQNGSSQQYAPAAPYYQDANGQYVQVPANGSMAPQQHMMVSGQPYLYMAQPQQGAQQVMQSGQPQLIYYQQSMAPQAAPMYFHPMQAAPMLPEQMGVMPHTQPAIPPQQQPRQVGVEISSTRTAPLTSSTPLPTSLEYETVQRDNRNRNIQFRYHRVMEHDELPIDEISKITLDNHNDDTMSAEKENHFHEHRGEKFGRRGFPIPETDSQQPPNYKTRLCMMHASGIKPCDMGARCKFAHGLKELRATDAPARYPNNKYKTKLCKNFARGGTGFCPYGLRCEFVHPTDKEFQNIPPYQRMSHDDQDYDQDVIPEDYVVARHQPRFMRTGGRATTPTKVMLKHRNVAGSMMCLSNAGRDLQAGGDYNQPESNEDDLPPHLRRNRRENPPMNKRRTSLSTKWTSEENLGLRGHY
The assay can be described thus: MEX-5/TCR-2 RNA interaction inhibitors, dose response, biochemical, C. elegans, fluorescence polarization (AID 1960).

Assay [3] is described as follows: Luminescence Cell-Based Dose Confirmation HTS to Identify Activators of 5'UTR Stem-Loop Driven Alpha-Synuclein mRNA Translation in H4 Neuroglioblastoma Cells. [Related pubchem assays: 1829 (Project Summary), 1814 (Primary HTS)]. It is filed as functional.
Assay [4] is described as follows: Luminescence Cell-Based Dose Response HTS to Identify Activators of Luciferase Translation or Activity in H4 […] Cells. [Related pubchem assays: 1829 (Project Summary), 1814 (Primary HTS)]. It is filed as functional.
The next assay deals with H4. The assay is described as follows: Luminescence Cell-Based Dose Response HTS to Identify Activators of 5'UTR Stem-Loop Driven Prion Protein mRNA Translation in H4 Neuroglioblastoma Cells. [Related pubchem assays: 1829 (Project Summary), 1814 (Primary HTS)]. It is filed as functional. The note with it: Homo sapiens.
A short description of assay [5]: microbe, parasite or virus in culture. The assay is classed as functional. The settings on record: Mycobacterium tuberculosis.
Assay [6] can be described thus: P. falciparum Dd2 growth inhibitors, dose response, SYBR Green, cherry-picked samples (AID 1159567). It is filed as functional, cell-based.
For assay [7], the target named is T3, Rac GTPase-activating protein 1 (Homo sapiens, UniProt Q9H0H5).
T3 sequence (Q9H0H5 whole entry): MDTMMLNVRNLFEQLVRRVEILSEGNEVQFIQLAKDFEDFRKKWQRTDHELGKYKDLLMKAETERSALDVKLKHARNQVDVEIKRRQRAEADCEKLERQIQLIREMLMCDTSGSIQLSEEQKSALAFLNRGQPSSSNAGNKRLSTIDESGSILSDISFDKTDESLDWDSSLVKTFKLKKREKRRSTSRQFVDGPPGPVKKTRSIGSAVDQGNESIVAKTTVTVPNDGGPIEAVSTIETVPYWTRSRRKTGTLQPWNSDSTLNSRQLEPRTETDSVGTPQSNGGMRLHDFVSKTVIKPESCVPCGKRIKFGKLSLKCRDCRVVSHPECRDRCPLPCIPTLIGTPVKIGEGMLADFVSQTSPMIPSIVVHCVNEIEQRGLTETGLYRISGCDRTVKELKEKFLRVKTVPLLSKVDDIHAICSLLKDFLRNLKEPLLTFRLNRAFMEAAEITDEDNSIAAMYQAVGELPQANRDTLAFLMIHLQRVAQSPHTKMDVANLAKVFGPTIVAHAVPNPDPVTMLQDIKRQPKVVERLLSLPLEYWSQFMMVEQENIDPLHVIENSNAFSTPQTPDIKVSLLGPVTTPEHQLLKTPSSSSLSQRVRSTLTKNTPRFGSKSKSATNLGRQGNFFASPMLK
The assay is described as follows: MgcRacGAP GTPase-activating activity inhibitors, confirmation, biochemical, ADP Hunter fluorescence, primary and confirmatory (AID 624330). It is filed as functional.

Assay [8] is described as follows: Luminescence Cell-Based Dose Retest to Confirm Inhibitors of Cancer Stem Cells. [Related pubchem assays (depositor defined):AID2717, AID2721]. It is filed as functional. The note with it: Homo sapiens.
Assay [9] in a line: HEp-2 cell cytotoxicity, dose response, cytotoxicity control for RSV inhibitor project, HTS (AID 2410). The assay is classed as functional. The note with it: human respiratory syncytial virus.
A short description of assay [10]: NIH-3T3 fibroblast cytotoxicity, dose response, cytotoxicity control, cell-based, fluorescence, Alamar Blue, secondary assay (AID 2327).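 Note: NIH-3T3 mouse fibroblasts cultured with fluconazole at 8 µg/mL.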 The assay is classed as functional. A general note: The colour change of resazurin is a common sign of viable cells or microbes.
Assay [11] in a line: C. albicans growth with fluconazole, confirmation, fluorescence, retest (AID 2467). The assay is classed as functional, cell-based.
The target in assay [12] is Luciferin 4-monooxygenase (Photinus pyralis, UniProt P08659). The assay is described as follows: firefly luciferase enzyme inhibitors, dose response, biochemical, luminescence (AID 1891).
Assay [13] can be described thus: Luminescence Cell-Based Dose Confirmation HTS to Identify Inhibitors of Platelet Dense Granule Release. [Related pubchem assays: 1663 (Primary HTS), 1678 (Summary of Project)]. The assay is classed as functional.
The target of assay [14] is FAD-linked sulfhydryl oxidase ALR (Homo sapiens, UniProt P55789). The assay can be described thus: inhibitors of human ALR sulfhydryl oxidase, dose response, biochemical, H2O2 detection, luminescence, cherry-pick (AID 493248).

The source made the active and inactive calls. Cut-off read from the data, not from the text of the source, for most assays here: actives have a measured EC50 and inactives only a lower limit.

Sequence of FAD-linked sulfhydryl oxidase ALR (P55789 whole entry): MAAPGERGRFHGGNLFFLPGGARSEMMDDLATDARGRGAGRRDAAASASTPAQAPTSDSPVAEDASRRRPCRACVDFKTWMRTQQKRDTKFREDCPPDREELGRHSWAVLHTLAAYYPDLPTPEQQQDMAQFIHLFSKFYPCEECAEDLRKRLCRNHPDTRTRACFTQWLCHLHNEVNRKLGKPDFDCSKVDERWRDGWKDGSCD
Sequence of Luciferin 4-monooxygenase (P08659 whole entry): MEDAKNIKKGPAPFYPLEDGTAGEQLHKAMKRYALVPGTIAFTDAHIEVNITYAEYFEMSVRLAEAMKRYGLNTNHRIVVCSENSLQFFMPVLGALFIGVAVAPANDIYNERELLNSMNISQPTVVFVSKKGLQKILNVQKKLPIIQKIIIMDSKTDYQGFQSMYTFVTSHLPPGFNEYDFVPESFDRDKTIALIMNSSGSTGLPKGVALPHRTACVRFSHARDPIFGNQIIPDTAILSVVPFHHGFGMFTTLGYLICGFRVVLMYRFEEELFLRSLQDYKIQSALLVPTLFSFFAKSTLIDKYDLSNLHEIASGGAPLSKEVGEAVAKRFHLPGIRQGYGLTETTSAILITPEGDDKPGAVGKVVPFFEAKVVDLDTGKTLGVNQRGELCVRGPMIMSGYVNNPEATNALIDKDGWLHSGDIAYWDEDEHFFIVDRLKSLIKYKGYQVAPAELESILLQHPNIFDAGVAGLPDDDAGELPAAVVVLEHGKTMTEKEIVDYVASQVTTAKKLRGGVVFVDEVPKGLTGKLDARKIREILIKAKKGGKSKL

By EC50 is commonly meant the midpoint of the concentration-response curve. As to `COCCCNC(=O)CCC(=O)NNc1nc2ccccc2c2nc(C)nn12`, the EC50 in [1] is > 300 µM (not active); in assay [2] it was 1.13 µM (active).

`O=C1c2ccccc2C(=O)N1CCN1CCc2ccccc21`: the EC50 in assay [3] was 13.7 µM (active); in [4] it was 17.9 µM (active); with H4, 30.3 µM (active).

In the case of `Cc1nc(-c2nc(-c3c(C(=O)NNC(=O)c4ccc(Cl)cc4)noc3C)cs2)cs1`, the CC50 in [5] is > 40 µM (active).

Turning to `N#Cc1ccc(OCC(O)CN2CCN(c3ncc(C(F)(F)F)cc3Cl)CC2)cc1` (stereo unspecified), in [5], the CC50 is > 40 µM (active).

Usually AC50 stands for the concentration giving half of the maximal activity seen. As for `CN(C)c1ccc2c(c1)[C@@H]1C[C@@H](CC(=O)N3CCc4ccccc4C3)O[C@@H](CO)[C@@H]1O2`, the concentration at half-maximal activity (AC50) in [6] was 9.12 µM (active).

In general, IC50 refers to the concentration that inhibits the measured activity by half. Take `COc1cccc(C(=O)Nc2cc3c(cc2N2CCCC2)n(C)c(=O)n3C)c1`: the IC50 in [7] is 156 µM (active).

`CO[C@H]1CN(C)C(=O)c2cc(NC(=O)c3ccc(F)cc3)ccc2OC[C@H](C)N(C(=O)c2ccc(F)cc2)C[C@H]1C`: the AC50 in assay [6] was 6.03 µM (active).

In the case of `CN1C[C@H]2[C@@H](c3ccccc31)[C@H](CO)N2Cc1ccccc1F`, the AC50 in assay [6] is 8.06 µM (active).

For the molecule `CC1CCCCC1NC(=O)/C=C/c1nc2ccccc2s1` (stereo unspecified), the EC50 in [3] was 15.9 µM (active); in assay [4], 17.2 µM (active); in the assay with H4 it was 16.2 µM (active).

As for `Cc1cccc(NC(=O)c2nc[nH]c2C(=O)N[C@H](C)c2ccccc2)c1`, the CC50 in [5] is 36.9 µM (active). Moreover, the AC50 in assay [8] was 6.42 µM (active).

As for `Cc1nc(NC(=O)CC(C)C)sc1-c1csc(Nc2ccc(Cl)cc2Cl)n1`, the CC50 in [9] was 22.9 µM (active); in assay [5], > 40 µM (active). Besides, the AC50 in [8] is 1.85 µM (active).

Regarding `CC(=O)N1CCN(c2ccc(NCc3ccco3)cc2)CC1`, the IC50 in assay [7] is 14.6 µM (active).

In the case of `CCc1ccc(N2CC(C(=O)N/N=C/c3cc([N+](=O)[O-])ccc3O)CC2=O)cc1` (stereo unspecified), the EC50 in [10] is 23.1 µM (active); in assay [11], > 38 µM (not active).

Regarding `Cc1c([N+](=O)[O-])c(C(=O)Nc2ccc3c(c2)OCCO3)nn1C`, the results for the EC50 (in assay [3]; in [4]; in the assay with H4) were 17.1 µM (active), 11 µM (active) and 9.3 µM (active), respectively.

On to `CC(C)=C(NC(=O)c1ccccc1)C(=O)N/N=C/c1ccc(O)cc1`, for which the EC50 in assay [3] is 11.3 µM (active); in assay [4], 11.8 µM (active); in the assay with H4, 8.89 µM (active); in assay [12], > 112 µM (not active); in assay [13], > 112 µM (not active). Moreover, the IC50 in assay [7] is 102 µM (active).

Consider `NC(=S)n1[nH]c(-c2ccccc2)c(N=Nc2ccccc2C(=O)N2CCOCC2)c1=O`, for which the EC50 was > 150 µM (inactive) in assay [10] and 7.72 µM (active) in [11].

In the case of `CC(C)c1ccc(N(C(=O)c2ccco2)C(C(=O)NC2CCCC2)c2ccncc2)cc1` (stereo unspecified), the figures for the EC50 (in [3]; in assay [4]; in the assay with H4) were 22.1 µM (active), 50.3 µM (active) and > 120 µM (not active), respectively.

On to `Cc1[n-][o+]nc1OCCNCCNc1ccc([N+](=O)[O-])c2cccnc12`, for which the EC50 in assay [1] is 120 µM (active); in [2], 18.6 µM (active).

As to `O=C1C2=C(SCCS2)C(=O)N1c1ccccc1`, the EC50 in assay [1] and in assay [2] was > 300 µM (not active) in each case.

Consider `O=C(/C=C/c1ccccc1)NNc1ccc(Cl)cc1`, for which the figures for the EC50 in [10] and in assay [11] were 28.1 µM (inconclusive) and 2.71 µM (active), respectively. Moreover, the AC50 in assay [8] was 5.85 µM (active).

Turning to `COC(=O)c1cn(CC(=O)NC2CCCCC2)c2ccccc12`, the EC50 was > 150 µM (inactive) in assay [10] and > 38 µM (not active) in [11].

Take `O=C(Nc1cccc(F)c1)c1ccc2ncsc2c1`: the results for the EC50 in assay [10] and in assay [11] were > 150 µM (inactive) and 3.17 µM (active), respectively.

As for `C[C@H]1CN([C@@H](C)CO)S(=O)(=O)c2ccc(C#Cc3ccccc3)cc2O[C@@H]1CN(C)C(=O)C1CC1`, in [6], the AC50 was 5.43 µM (active).

For the molecule `Oc1ccc(Cl)cc1C1=NNC(c2cc(Br)cc3c2OCOC3)C1` (stereo unspecified), the EC50 in assay [10] was > 160 µM (inactive); in assay [11] it was > 38 µM (not active).

Consider `Cc1cccc(-c2nc(C#N)c(N3CCCCC3)o2)c1`, for which the results for the EC50 (in assay [3]; in [4]; in the assay with H4) were 10 µM (active), 20 µM (active) and 3.9 µM (active), respectively.

Consider `CCOc1ccc2nc(N=C(N)N=C(S)Nc3cccc(C)c3)nc(C)c2c1`, for which, in assay [5], the CC50 is > 40 µM (active).

Take `CC1=CC(C)(C)N2C(=O)C3(C(C#N)=C(N)OC4=C3C(=O)CC(C)(C)C4)c3cc(C)cc1c32` (stereo unspecified): the EC50 in assay [1] and in assay [2] was > 300 µM (not active) each time.

`O=C(c1ccccc1)N1CC[C@@H]2[C@@H](CO)Nc3ccc(-c4ccc(F)cc4)cc3[C@@H]21`: the AC50 in [6] is 5.45 µM (active).

Regarding `Cc1nn(-c2ccc(Cl)nn2)c(=O)c2ccccc12`, the EC50 was 12.5 µM (active) in assay [3], 14.4 µM (active) in assay [4] and 16.4 µM (active) with H4.

As for `N#Cc1ccc(-c2ccc(OCC3CNC(=O)O3)cc2)cc1` (stereo unspecified), the EC50 in assay [3] is 0.187 µM (active); in assay [4] it was 36.9 µM (active); with H4, 11.3 µM (active).

On to `C=CCC1(CC=C)CCCN1C(=O)C1CCC(=O)N(CCc2ccc(OC)cc2)C1` (stereo unspecified), for which the EC50 in [3] was 6.13 µM (active); in [4], 10.4 µM (active); with H4, 96 µM (active).

For `COc1ccccc1CNC(=O)C[C@H]1C[C@@H]2c3cc(NC(=O)Nc4ccc(C(F)(F)F)cc4)ccc3O[C@@H]2[C@@H](CO)O1`, the AC50 in assay [6] is 8.47 µM (active).

Turning to `Cc1cccc(OCC(=O)NC(C)C(=O)N/N=C/c2c(OCc3ccccc3)ccc3ccccc23)c1` (stereo unspecified), the EC50 in assay [3] is 9.47 µM (active); in assay [4] it was 39.7 µM (active); in the assay on H4, 33.5 µM (active).

Regarding `CCN(CC)CC(=O)NN(Cc1ccccc1)c1ccccc1`, in assay [7], the IC50 was 108 µM (active).

Turning to `O=C(CCN1CCN(C(c2ccccc2)c2ccccc2)CC1)N/N=C/c1ccc(O)cc1`, the AC50 in [14] was 1.6 µM (active). Also, in [7], the IC50 was 88.2 µM (active).

With `COc1cc(C2CC(=O)Nc3[nH]nc(-c4ccccc4)c32)cc(OC)c1OC` (stereo unspecified), the EC50 (in assay [3]; in assay [4]; with H4) was > 120 µM (not active) each time.
